Assays:
[1] = target: T1, Peroxisome proliferator-activated receptor alpha (Homo sapiens, UniProt Q07869)
T1 sequence (Q07869 whole entry): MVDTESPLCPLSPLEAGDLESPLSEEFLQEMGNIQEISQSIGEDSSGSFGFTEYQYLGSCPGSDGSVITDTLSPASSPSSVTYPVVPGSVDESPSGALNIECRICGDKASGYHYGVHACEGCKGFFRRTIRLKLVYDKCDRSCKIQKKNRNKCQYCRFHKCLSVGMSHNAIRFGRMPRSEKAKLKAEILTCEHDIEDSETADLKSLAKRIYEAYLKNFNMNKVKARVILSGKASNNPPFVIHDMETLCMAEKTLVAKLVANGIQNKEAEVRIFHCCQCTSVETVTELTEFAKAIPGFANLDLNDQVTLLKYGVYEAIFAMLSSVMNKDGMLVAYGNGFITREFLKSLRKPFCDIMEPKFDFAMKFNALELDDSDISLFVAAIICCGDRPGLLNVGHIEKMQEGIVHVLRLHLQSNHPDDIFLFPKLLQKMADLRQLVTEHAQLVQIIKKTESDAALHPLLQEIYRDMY
Description: In vitro binding affinity for human peroxisome proliferator activated receptor alpha using scintillation proximity assay (SPA)

[2] = target: T2, Peroxisome proliferator-activated receptor gamma (Homo sapiens, UniProt P37231); test: In vitro transcriptional activation by human PPAR gamma Gal4 chimera
T2 sequence (P37231 whole entry): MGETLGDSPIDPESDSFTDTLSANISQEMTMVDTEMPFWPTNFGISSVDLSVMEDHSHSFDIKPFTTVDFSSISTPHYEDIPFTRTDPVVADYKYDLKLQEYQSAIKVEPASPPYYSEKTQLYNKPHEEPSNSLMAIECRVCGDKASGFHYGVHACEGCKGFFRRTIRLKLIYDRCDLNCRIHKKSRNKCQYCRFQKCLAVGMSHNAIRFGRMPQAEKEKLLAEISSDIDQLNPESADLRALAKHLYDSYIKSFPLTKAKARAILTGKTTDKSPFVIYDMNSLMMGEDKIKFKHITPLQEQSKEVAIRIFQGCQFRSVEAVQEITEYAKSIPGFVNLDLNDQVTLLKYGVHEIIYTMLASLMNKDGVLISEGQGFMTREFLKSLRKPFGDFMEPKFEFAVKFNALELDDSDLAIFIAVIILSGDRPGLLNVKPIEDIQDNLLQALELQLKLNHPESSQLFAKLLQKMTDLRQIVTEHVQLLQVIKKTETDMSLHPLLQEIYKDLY

[3] = target: T3, Peroxisome proliferator-activated receptor delta (Homo sapiens, UniProt Q03181)
T3 sequence (Q03181 whole entry): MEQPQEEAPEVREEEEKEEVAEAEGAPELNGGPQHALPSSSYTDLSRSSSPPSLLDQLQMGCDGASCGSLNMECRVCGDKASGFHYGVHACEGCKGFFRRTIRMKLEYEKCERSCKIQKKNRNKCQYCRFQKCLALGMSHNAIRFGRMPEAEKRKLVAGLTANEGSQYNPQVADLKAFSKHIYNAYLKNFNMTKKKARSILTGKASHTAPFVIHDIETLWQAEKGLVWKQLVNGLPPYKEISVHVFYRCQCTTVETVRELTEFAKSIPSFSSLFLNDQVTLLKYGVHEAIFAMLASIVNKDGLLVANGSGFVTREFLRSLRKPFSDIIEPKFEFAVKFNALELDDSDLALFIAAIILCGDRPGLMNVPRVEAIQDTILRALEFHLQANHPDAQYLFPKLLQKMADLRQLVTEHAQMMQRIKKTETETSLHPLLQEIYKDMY

[4] = target: T2, Peroxisome proliferator-activated receptor gamma; test: In vitro binding affinity for human peroxisome proliferator activated receptor gamma using scintillation proximity assay (SPA)
[5] = target: T1, Peroxisome proliferator-activated receptor alpha; test: In vitro potency of PPAR gene activation against human Peroxisome proliferator activated receptor alpha using chimeric Gal4-hPPAR transactivation assay (TA)
[6] = target: T1, Peroxisome proliferator-activated receptor alpha; test: In vitro transcriptional activation by human PPAR alpha Gal4 chimera; Not active
[7] = target: T2, Peroxisome proliferator-activated receptor gamma
Description: In vitro potency of PPAR gene activation against human PPAR gamma receptor using chimeric Gal4-hPPAR transactivation assay (TA)

[8] = target: T2, Peroxisome proliferator-activated receptor gamma; remark: listed apart in the source
Description: In vitro binding affinity for human PPAR gamma receptor using scintillation proximity assay (SPA)

Cricetinae gen. sp. [9] = test: In vivo percent change in serum cholesterol in hamsters at 100 mg/kg; format: functional, Cricetulus griseus
Canis familiaris = test: In vivo percent change in serum cholesterol in dogs at 50 mg/kg; format: functional, Canis lupus familiaris
Cricetinae gen. sp. [10] = test: In vivo percent change in triglyceride in hamsters at 100 mg/kg; format: functional, Cricetulus griseus
Cricetinae gen. sp. [11] = test: In vivo serum cholesterol in hamsters at 100 mg/kg; format: functional, Cricetulus griseus

| Structure (SMILES) | IC50 [1] [nM] | EC50 [2] [nM] | IC50 [3] [nM] | IC50 [4] [nM] | EC50 [5] [nM] | EC50 [6] | EC50 [7] [nM] | IC50 [8] [nM] | Change (Cricetinae gen. sp. [9]) [%] | Change (Canis familiaris) [%] | Change (Cricetinae gen. sp. [10]) [%] | Activity (Cricetinae gen. sp. [11]) [mg/dL] |
| --- | --- | --- | --- | --- | --- | --- | --- | --- | --- | --- | --- | --- |
| CCCc1cc(Oc2ccc(S(C)(=O)=O)cc2)ccc1OCCCOc1ccc2c(c1)OC(CC)(C(=O)O)CC2 (centres undefined) | > 15000 |  | > 50000 |  |  | Not Active | 2800 | 370 |  |  |  |  |
| CCCc1cc(Oc2ccccc2)ccc1OCCCOc1ccc2c(c1)CCC(C)(C(=O)O)O2 (centres undefined) | 3300 |  | > 50000 | 1700 |  | Not Active | 6800 |  |  |  |  |  |
| CCCc1cc(Oc2ccccc2)ccc1OCCCCOc1ccc2c(c1)CCC(C(=O)O)O2 (centres undefined) | 5800 |  | > 50000 | 3000 |  | Not Active | 2500 |  |  |  |  |  |
| CCCc1cc(Oc2ccccc2)ccc1OCCCOc1ccc2c(c1)OC(C)(C(=O)O)CC2 (centres undefined) | 1900 |  | > 50000 | 750 | 100 |  | 1000 |  |  |  |  |  |
| CCCc1cc(Oc2ccccc2)ccc1OCCCOc1ccc2c(c1)OC(C(=O)O)CC2 (centres undefined) | 1500 |  | 170 | 980 | 3000 |  | 7300 |  |  |  |  |  |
| CCCc1cc(Oc2ccccc2)ccc1OCCCCOc1ccc2c(c1)CCC(C)(C(=O)O)O2 (centres undefined) | 2000 |  | > 50000 | 2300 |  | Not Active | 1200 |  |  |  |  |  |
| CC(C)OC(=O)C(C)(C)Oc1ccc(C(=O)c2ccc(Cl)cc2)cc1 [FENOFIBRATE] |  |  |  |  |  |  |  |  | -38 | -16.3 | -44 | 67 |

Continued, in another order:

| IC50 [1] [nM] | EC50 [2] [nM] | IC50 [3] [nM] | IC50 [4] [nM] | EC50 [5] [nM] | Structure (SMILES) | EC50 [6] | EC50 [7] [nM] | IC50 [8] [nM] | Change (Cricetinae gen. sp. [9]) [%] | Change (Canis familiaris) [%] | Change (Cricetinae gen. sp. [10]) [%] | Activity (Cricetinae gen. sp. [11]) [mg/dL] |
| --- | --- | --- | --- | --- | --- | --- | --- | --- | --- | --- | --- | --- |
| 370 | 1000 | > 50000 | 4700 | 50 | CCC1(C(=O)O)CCc2ccc(OCCCOc3ccc(Oc4ccccc4)cc3F)cc2O1 (centres undefined) |  |  |  |  |  |  |  |
| 120 |  | > 15000 |  | 30 | CCC1(C(=O)O)CCc2ccc(OCCCOc3ccc(Oc4ccccc4)cc3Cl)cc2O1 (centres undefined) |  | 160 | 690 |  |  |  |  |
| 1700 | 10000 | > 50000 | > 15000 | 220 | CCC1(C(=O)O)CCc2ccc(OCCCOc3ccc(Oc4ccccc4)cc3)cc2O1 (centres undefined) |  |  |  |  |  |  |  |
| 2100 |  | > 50000 | 370 | 120 | CCCc1cc(Oc2ccccc2)ccc1OCCCOc1ccc2c(c1)OC(CCC)(C(=O)O)CC2 (centres undefined) |  | 830 |  |  |  |  |  |

From ChEMBL document CHEMBL1149176, “(2R)-2-ethylchromane-2-carboxylic acids: discovery of novel PPARalpha/gamma dual agonists as antihyperglycemic and hypolipidemic agents” (J Med Chem, 2004)
